# From patent US20260219279A1, “IMPROVED HIGH-THROUGHPUT HYDROGEN-DEUTERIUM EXCHANGE-MASS SPECTROMETRY SYSTEM AND METHOD” (THE BOARD OF REGENTS OF THE UNIVERSITY OF OKLAHOMA, priority 2023, published 2026)
# Legend:
# 60 kDa chaperonin = biological target: T1, 60 kDa chaperonin (Escherichia coli, UniProt P0A6F5); experiment: Differential PTD-HDX-MS in 60° C.-depleted E. coli cell lysate; type: binding; settings: 60° C.-PTD sample
# T1 construct: endogenous in cells; host or cells: E. coli cell lysate
# Experimental: (§1) Samples were prepared in triplicate.
# (§2) The flowrate was controlled at 150 μL/min.
# (§3) The decoy database was automatically generated in MSGF+ software.
# [1] = biological target: T2, alkyl hydroperoxide reductase C (Escherichia coli, UniProt P0AE08); experiment: as above; type: binding; settings: 60° C.-PTD sample
# T2 construct: endogenous in cells; host or cells: E. coli cell lysate
# Experimental: as §1, §2, §3
# T1 sequence (P0A6F5 2-548): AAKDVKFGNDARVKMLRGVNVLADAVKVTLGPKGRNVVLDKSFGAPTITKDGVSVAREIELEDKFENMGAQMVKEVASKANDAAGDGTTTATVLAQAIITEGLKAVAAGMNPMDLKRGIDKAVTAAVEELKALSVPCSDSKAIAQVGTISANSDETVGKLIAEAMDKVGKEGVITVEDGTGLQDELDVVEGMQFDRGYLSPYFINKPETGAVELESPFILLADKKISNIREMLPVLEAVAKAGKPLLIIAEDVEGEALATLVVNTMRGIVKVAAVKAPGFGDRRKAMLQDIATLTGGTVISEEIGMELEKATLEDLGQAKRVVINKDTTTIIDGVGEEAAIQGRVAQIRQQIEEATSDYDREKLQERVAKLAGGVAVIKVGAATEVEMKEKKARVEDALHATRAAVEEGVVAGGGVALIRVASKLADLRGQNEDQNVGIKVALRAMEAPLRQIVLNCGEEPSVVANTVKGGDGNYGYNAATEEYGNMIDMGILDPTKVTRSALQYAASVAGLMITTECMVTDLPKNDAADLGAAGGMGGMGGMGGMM
# T2 sequence (P0AE08 2-187): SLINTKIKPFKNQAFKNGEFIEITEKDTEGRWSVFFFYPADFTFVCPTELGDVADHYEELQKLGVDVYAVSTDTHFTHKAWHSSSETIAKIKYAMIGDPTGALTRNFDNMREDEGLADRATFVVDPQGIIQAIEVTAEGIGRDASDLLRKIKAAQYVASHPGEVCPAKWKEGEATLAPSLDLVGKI
smiles,measurement,setting,value
"CC(=O)Nc1nnc(S(N)(=O)=O)s1 [AZM, Acetazolamide]",deuterium uptake difference of characterized peptides following AZM treatment,60 kDa chaperonin,no significant differences
same,deuterium uptake difference of characterized peptides following AZM treatment,[1],no significant differences
